Our source for the EC50 and Activity values is ChEMBL document CHEMBL1134264, “Identification of a subtype selective human PPARalpha agonist through parallel-array synthesis” (Bioorg Med Chem Lett, 2001).

SMILES strings stand for the structures. “And” between values parts separate entries of the source, which are not always exact repeats. Identical values can stand only once. The source made the active and inactive calls. No cut-off for these calls is given here.

Assay [1] concerns the target T1, Peroxisome proliferator-activated receptor delta (Homo sapiens, UniProt Q03181).
T1 sequence (Q03181 whole entry): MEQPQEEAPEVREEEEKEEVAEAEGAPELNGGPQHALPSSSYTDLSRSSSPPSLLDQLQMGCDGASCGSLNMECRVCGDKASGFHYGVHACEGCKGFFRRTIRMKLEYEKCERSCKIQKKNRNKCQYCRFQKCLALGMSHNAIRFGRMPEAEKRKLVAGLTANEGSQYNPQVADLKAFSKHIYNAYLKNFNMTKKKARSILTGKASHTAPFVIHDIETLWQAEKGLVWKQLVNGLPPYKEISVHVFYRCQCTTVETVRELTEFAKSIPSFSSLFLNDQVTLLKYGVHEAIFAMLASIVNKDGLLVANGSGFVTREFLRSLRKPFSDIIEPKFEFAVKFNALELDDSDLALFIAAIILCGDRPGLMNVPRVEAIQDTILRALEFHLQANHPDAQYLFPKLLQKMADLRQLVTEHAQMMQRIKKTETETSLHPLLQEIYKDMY
Put plainly: In vitro transcriptional activation in CV-1 cells expressing human Gal4-PPAR delta ligand binding domain. Type of assay: cell-based.

Assay [2] concerns the target T2, Peroxisome proliferator-activated receptor gamma (Homo sapiens, UniProt P37231).
T2 sequence (P37231 whole entry): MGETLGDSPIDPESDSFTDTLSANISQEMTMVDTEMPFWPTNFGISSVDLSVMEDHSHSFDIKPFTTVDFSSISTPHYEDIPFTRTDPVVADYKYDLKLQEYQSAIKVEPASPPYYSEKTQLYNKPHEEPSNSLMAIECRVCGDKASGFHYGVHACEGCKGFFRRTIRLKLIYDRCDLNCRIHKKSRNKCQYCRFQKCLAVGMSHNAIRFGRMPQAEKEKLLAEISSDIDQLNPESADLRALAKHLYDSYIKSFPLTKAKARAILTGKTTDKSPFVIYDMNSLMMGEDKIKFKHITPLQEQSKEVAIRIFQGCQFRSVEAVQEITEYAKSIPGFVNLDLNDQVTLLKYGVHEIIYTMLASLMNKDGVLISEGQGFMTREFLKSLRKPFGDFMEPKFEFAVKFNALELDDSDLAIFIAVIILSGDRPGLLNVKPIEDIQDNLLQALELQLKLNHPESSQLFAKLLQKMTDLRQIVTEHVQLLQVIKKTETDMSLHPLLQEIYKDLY
Put plainly: In vitro transcriptional activation in CV-1 cells expressing human Gal4-PPAR gamma ligand binding domain. Format: cell-based.

The test system of assay [3] is Cricetinae gen. sp. The assay is described as follows: In vivo triglyceride lowering activity in fat-fed hamsters at a dose of 3 mg/kg, po for 7 days; not active. Format: functional, organism-based. The settings on record: Cricetulus griseus. Also on record: dose 3 mg/kg.
In assay [4] the target is T3, Peroxisome proliferator-activated receptor alpha (Homo sapiens, UniProt Q07869).
T3 sequence (Q07869 whole entry): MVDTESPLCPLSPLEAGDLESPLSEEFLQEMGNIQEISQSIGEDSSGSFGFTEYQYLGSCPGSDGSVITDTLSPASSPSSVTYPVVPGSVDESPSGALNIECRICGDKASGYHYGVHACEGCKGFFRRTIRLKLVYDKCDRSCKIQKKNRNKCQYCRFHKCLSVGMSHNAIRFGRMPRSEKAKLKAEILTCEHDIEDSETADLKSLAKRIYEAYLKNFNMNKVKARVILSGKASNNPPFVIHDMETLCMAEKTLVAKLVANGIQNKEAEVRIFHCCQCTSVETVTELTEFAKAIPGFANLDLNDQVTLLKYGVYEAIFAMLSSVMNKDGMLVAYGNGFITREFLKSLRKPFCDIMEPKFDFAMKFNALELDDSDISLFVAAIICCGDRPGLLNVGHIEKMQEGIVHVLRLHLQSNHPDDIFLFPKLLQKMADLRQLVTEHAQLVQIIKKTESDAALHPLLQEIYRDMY
Description: In vitro transcriptional activation in CV-1 cells expressing human Gal4-PPAR alpha ligand binding domain

Assay [5] has as its system Cricetinae gen. sp. Put plainly: In vivo triglyceride lowering activity in fat-fed hamsters at a dose of 3 mg/kg, po for 7 days. Type of assay: functional.
Assay [6] deals with Rattus norvegicus. Put plainly: In vivo increase in HDL cholesterol in cholesterol/cholic acid fed rats at 3 mg/kg peroral dose for 4 days. Format: functional. The settings on record: route oral.
Assay [7] deals with Rattus norvegicus. Put plainly: In vivo decrease in serum apolipoprotein CIII in cholesterol/cholic acid fed rats at 3 mg/kg peroral dose for 4 days. Format: functional. Further details: scale not given: the % may be the effect or the level left. The conditions noted are these: route oral.
Assay [8] deals with Rattus norvegicus. The assay is described as follows: In vivo triglyceride lowering activity in cholesterol/cholic acid fed rats at 3 mg/kg peroral dose for 4 days. Format: functional. The settings on record: route oral.

On to `CC(C)(Sc1ccc(CCN(CCc2ccc(-c3ccccc3)cc2)C(=O)Nc2cc(Cl)cc(Cl)c2)cc1)C(=O)O`, for which the figures for the concentration for a half-maximal effect (EC50) in assay [1], in assay [2] and in assay [4] were greater than 10000 nM, 2000 nM and 50 nM, respectively. For the same molecule, the outcome in the assay with Cricetinae gen. sp. [3] was inactive.
With `COc1ccccc1NC(=O)N(CCCCC1CCCCC1)CCc1ccc(SC(C)(C)C(=O)O)cc1`, the EC50 in assay [1] was 1100 nM; in assay [2], 320 nM; in assay [4] it was 5 nM. Moreover, the outcome in the assay with Cricetinae gen. sp. [3] was inactive.
In the same order, the values of `COc1ccc(NC(=O)N(CCc2ccc(SC(C)(C)C(=O)O)cc2)CCc2ccc(-c3ccccc3)cc2)c(OC)c1` are 4000 nM, 1200 nM, 6 nM and “inactive”.
`CC(C)(Sc1ccc(CCN(CCc2ccc(-c3ccccc3)cc2)C(=O)NC2CCCCC2)cc1)C(=O)O`: in the assay with Cricetinae gen. sp. [5], the Activity is recorded as -70%. The EC50 was found to be 5000 nM in assay [1], 2400 nM in assay [2] and 8 nM in assay [4].
As for `CC(C)(Sc1ccc(CCN(CCCCC2CCCCC2)C(=O)NC2CCCCC2)cc1)C(=O)O` [GW7647], the Activity in the assay with Cricetinae gen. sp. [5] is -93%; with Rattus norvegicus [6], 60%; in the assay on Rattus norvegicus [7], 40%; in the assay with Rattus norvegicus [8], 60%.
Regarding `CC(C)(Sc1ccc(CCN(CCCCC2CCCCC2)C(=O)Nc2cc(Cl)cc(Cl)c2)cc1)C(=O)O`, the concentration giving a half-maximal response (EC50) was greater than 10000 nM in assay [1], 1000 nM in assay [2] and 1 nM in assay [4]. In the assay with Cricetinae gen. sp. [3], the outcome was inactive.
On to `COc1ccc(C)cc1NC(=O)N(CCc1ccc(SC(C)(C)C(=O)O)cc1)CCc1ccc(-c2ccccc2)cc1`, for which the Activity in the assay with Cricetinae gen. sp. [5] was -33%. In addition, the values for the EC50 in assay [1], in assay [2] and in assay [4] were greater than 10000 nM, 10000 nM and 100 nM, respectively.
Turning to `Cc1ccc(NC(=O)N(CCCCC2CCCCC2)CCc2ccc(SC(C)(C)C(=O)O)cc2)cc1[N+](=O)[O-]`, the Activity in the assay on Cricetinae gen. sp. [5] is listed as -78%. Besides, the half-maximal effective concentration (EC50) is greater than 10000 nM in assay [1], 2000 nM in assay [2] and 20 nM in assay [4].
Consider `CC(C)(Sc1ccc(CCN(CCCCC2CCCCC2)C(=O)Nc2cccc(C#N)c2)cc1)C(=O)O`, for which the Activity with Cricetinae gen. sp. [5] is on record as -69%. The results for the EC50 in assay [1], in assay [2] and in assay [4] were greater than 10000 nM, 1000 nM and 9 nM, respectively.
Turning to `CC(C)c1ccc(NC(=O)N(CCc2ccc(SC(C)(C)C(=O)O)cc2)CCc2ccc(-c3ccccc3)cc2)cc1`, the EC50 in assay [1] is > 10000 nM and 2000 nM; in assay [2], 8500 nM and 1400 nM; in assay [4], 17 nM and 20 nM. The result in the assay with Cricetinae gen. sp. [3] was inactive.
`Cc1cc(C)c(NC(=O)N(CCc2ccc(SC(C)(C)C(=O)O)cc2)CCc2ccc(-c3ccccc3)cc2)cc1C`: the EC50 in assay [1] was greater than 10000 nM; in assay [2], 1350 nM; in assay [4], 9 nM. In the assay with Cricetinae gen. sp. [3], the outcome was inactive.
With `CCCCCCCN(CCc1ccc(SC(C)(C)C(=O)O)cc1)C(=O)Nc1ccc(F)cc1F` [GSK-9578], the Activity in the assay on Cricetinae gen. sp. [5] is -88%.

Usually EC50 stands for the concentration at which the effect is half-maximal.
